The text below walks through data of PMC3917281, “Identification and Biochemical Characterization of Halisulfate 3 and Suvanine as Novel Inhibitors of Hepatitis C Virus NS3 Helicase from a Marine Sponge” (Marine Drugs, 2014).

The target in experiment [1] is T1, HCV NS3 helicase (Hepatitis C virus genotype 1a, UniProt P27958).
T1 construct: The full-length HCV NS3 protein with serine protease and NTPase/helicase activities was expressed and purified as described previously; made in house
The experiment can be described thus: PET-based fluorescence helicase assay. In kind it is biochemical. On the procedure: The PET-based fluorescence helicase assay was performed as described previously. The dsRNA substrate was prepared by annealing the 5′ BODIPY FL-labeled fluorescence strand (5′-[…]-3′) to the quencher strand (5′-[…]-3′) at a 1:2 molar ratio. The dsRNA substrate contains the 3′-overhang that is necessary for the NS3 helicase to bind RNA prior to duplex unwinding. The capture strand (5′-[…]-3′), which is complementary to the quencher strand, prevents the unwound duplexes from reannealing. None of the capture, quencher, or fluorescence strands are self-complementary. The fluorescence strand was purchased from J-Bio 21 Corporation (Tokyo, Japan), and was labeled with BODIPY FL at the 5′-end via an aminohexylphosphate linker with a six-carbon spacer. […]
The reaction was started by the addition of HCV NS3 helicase, and was performed at 37 °C for 30 min using a LightCycler 1.5 (Roche Diagnostics, Basel, Switzerland). The fluorescence intensity was recorded every 5 s from 0 to 5 min, and then every 30 s from 5 to 30 min. Helicase activity was calculated as the initial reaction velocity relative to control (in the absence of a marine extract, but presence of DMSO vehicle). The IC50 was calculated using KaleidaGraph (Synergy Software, Reading, PA, USA) by fitting plots of % activity vs. [I] using Equation (1) unless otherwise noted: [drawing 1] […]

For experiment [2], the target named is T1, HCV NS3 helicase. The experiment can be described thus: Gel-based HCV NS3 helicase assay. The settings on record: 0–100 µM inhibitor. It counts as biochemical. The method, then:
A gel-based helicase assay was performed on HCV NS3 helicases using an Alexa Fluor 488-labeled dsRNA strand and capture strand with the same nucleic acid sequences described in Section 3.2. The dsRNA substrate was prepared by annealing the 5′ Alexa Fluor 488-labeled strand (5′-[…]-3′) to the complementary strand (5′-[…]-3′) at a 1:2 molar ratio. The same capture strand described in Section 3.2 was used. All nucleic acid strands were purchased from Japan Bio Services (Saitama, Japan). The reaction mixture for HCV NS3 helicase contained the same components as described in Section 3.2, with increasing concentrations of hal3 or suvanine in a reaction volume of 20 µL. The reaction was started by the addition of HCV NS3 helicase, and performed at 37 °C for 60 min using a GeneAmp PCR System 2700 (Applied Biosystems, Foster City, CA, USA). […] The helicase activity was calculated as the ratio of the signal intensity derived from ssRNA in the sample containing inhibitor to that in the control sample containing DMSO vehicle instead of inhibitor.

A further experiment addresses T2, NS3 ATPase activity (Hepatitis C virus genotype 1a, UniProt P27958).
T2 construct: The full-length HCV NS3 protein with serine protease and NTPase/helicase activities was expressed and purified as described previously; made in house
Kind of experiment: ATPase assay ([γ-32P] ATP hydrolysis, thin-layer chromatography). It counts as biochemical. The settings on record: poly(U) RNA, 0–100 µM inhibitor. The method, then: NS3 ATPase activity was determined directly by monitoring [γ-^32P] ATP hydrolysis by thin-layer chromatography, as described previously. The reaction mixture contained 25 mM MOPS-NaOH (pH 7.0), 1 mM dithiothreitol, 5 mM MgCl2, 5 mM CaCl2, 1 mM [γ-^32P] ATP (Muromachi Yakuhin, Tokyo, Japan), 300 nM NS3, 0.1 µg/µL poly (U) ssRNA (Sigma-Aldrich, St. Louis, MO, USA), and increasing concentrations of hal3 or suvanine in a volume of 10 µL. The reaction was conducted at 37 °C for 10 min, and stopped by the addition of 10 mM EDTA. Two microliters of each reaction mixture was then spotted onto a polyethyleneimine cellulose sheet (Merck, Darmstadt, Germany) and developed in 0.75 M LiCl/1 M formic acid solution for 20 min. The cellulose sheet was dried, and the released [γ-^32P] phosphoric acid was visualized using an Image Reader FLA-9000 and quantified using Multi Gauge software V 3.11 (Fujifilm, Tokyo, Japan). ATPase activity was calculated as the ratio of the signal intensity derived from the released Pi in the sample containing inhibitor to that in the control sample containing DMSO vehicle instead of inhibitor.

For a further experiment, the target named is T3, NS3 RNA binding activity (Hepatitis C virus genotype 1a, UniProt P27958).
T3 construct: The full-length HCV NS3 protein with serine protease and NTPase/helicase activities was expressed and purified as described previously; made in house
T3 sequence (P27958 1027-1657): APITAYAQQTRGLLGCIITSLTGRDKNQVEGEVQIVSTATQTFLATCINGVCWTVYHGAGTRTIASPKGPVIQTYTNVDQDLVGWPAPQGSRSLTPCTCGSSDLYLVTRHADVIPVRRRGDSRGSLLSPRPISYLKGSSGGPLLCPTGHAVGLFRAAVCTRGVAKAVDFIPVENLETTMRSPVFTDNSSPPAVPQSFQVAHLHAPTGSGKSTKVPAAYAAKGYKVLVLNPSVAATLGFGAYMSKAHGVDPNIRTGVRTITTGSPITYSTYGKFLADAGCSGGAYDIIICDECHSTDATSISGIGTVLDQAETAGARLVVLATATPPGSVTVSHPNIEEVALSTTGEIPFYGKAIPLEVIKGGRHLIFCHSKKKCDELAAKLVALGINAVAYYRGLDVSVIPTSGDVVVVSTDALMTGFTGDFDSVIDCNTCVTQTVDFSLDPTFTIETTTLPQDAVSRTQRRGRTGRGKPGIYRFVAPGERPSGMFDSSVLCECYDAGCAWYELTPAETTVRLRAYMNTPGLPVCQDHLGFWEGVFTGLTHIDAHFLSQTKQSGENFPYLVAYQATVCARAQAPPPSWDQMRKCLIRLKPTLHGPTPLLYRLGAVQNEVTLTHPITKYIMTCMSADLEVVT
Kind of experiment: RNA binding assay (gel mobility shift). The settings on record: 32P-labeled ssRNA, 0–100 µM inhibitor. On the procedure:
NS3 RNA binding activity was determined by gel mobility shift assay, as described previously. The ssRNA (5′-[…]-3′) synthesized by Gene Design (Osaka, Japan) was labeled at the 5′-end with [γ-^32P] ATP (Muromachi Yakuhin, Tokyo, Japan) using T4 polynucleotide kinase (Toyobo, Osaka, Japan) at 37 °C for 60 min, and purified using the phenol-chloroform extraction method. The reaction mixture contained 30 mM Tris-HCl (pH 7.5), 100 mM NaCl, 2 mM MgCl2, 1 mM dithiothreitol, 20 U RNasin Plus (Promega), 300 nM NS3, 0.1 nM ^32P-labeled ssRNA, and increasing concentrations of inhibitor in a volume of 20 µL. The reaction was performed at room temperature for 15 min. An equal volume of a dye solution containing 0.025% bromophenol blue and 10% glycerol in 0.5× TBE was then added to each reaction mixture, and samples were loaded onto a 6% native-polyacrylamide gel. The labeled RNA bands were visualized using an Image Reader FLA-9000 and quantified using Multi Gauge software V 3.11 (Fujifilm, Tokyo, Japan). RNA binding activity was calculated as the ratio of the signal intensity derived from the NS3-ssRNA complex in the sample containing hal3 or suvanine to that in the control sample containing DMSO vehicle rather than inhibitor.

Another experiment addresses T4, HCV NS3/4A protease (Hepatitis C virus genotype 1a, UniProt P27958).
T4 construct: NS3 protein with a two-fold excess of the NS4A cofactor peptide Pep4AK was prepared in 1× assay buffer; made in house
Kind of experiment: Fluorescence NS3 serine protease assay (FRET). It counts as biochemical. On the procedure:
A fluorescence NS3 serine protease assay, based on fluorescence resonance energy transfer, was conducted using reagents provided in a SensoLyte™ 520 HCV protease assay kit (AnaSpec, San Jose, CA, USA), as described previously. Briefly, NS3 protein with a two-fold excess of the NS4A cofactor peptide Pep4AK was prepared in 1× assay buffer provided with the kit. HCV NS3/4A protease was mixed with increasing concentrations of inhibitor, and incubated at 37 °C for 15 min. The reaction was started by the addition of 5-FAM/QXL 520 substrate in a 20 µL total reaction volume containing 240 nM HCV NS3/4A protease and increasing concentrations of hal3 or suvanine. Reactions were then incubated at 37 °C for 120 min on a LightCycler 1.5 (Roche Diagnostics, Basel, Switzerland), and the fluorescence intensity was recorded every min for 120 min. NS3 serine protease activity was calculated as the initial reaction velocity in the sample containing inhibitor relative to the control sample containing DMSO vehicle rather than inhibitor.

The target in another experiment is T5, DENV NS3 helicase (Dengue virus type 2, UniProt P29990).
T5 construct: made in house
T5 sequence (P29990 1476-2093): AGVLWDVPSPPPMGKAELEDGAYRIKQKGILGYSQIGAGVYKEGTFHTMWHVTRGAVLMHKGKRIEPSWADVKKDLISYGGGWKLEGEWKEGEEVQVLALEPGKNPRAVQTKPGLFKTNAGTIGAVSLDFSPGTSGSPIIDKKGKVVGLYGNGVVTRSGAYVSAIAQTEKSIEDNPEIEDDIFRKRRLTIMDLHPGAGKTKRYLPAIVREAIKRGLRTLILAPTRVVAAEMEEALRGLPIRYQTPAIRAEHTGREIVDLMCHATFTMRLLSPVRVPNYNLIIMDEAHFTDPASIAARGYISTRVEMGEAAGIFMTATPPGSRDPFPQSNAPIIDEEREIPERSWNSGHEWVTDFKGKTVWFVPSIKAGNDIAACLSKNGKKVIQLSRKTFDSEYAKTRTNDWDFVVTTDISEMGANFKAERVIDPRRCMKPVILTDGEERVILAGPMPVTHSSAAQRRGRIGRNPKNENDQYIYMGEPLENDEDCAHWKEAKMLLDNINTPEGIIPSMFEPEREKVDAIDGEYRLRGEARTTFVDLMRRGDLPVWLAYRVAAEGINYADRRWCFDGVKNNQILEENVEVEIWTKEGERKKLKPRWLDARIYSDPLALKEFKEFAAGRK
Kind of experiment: Gel-based DENV NS3 helicase assay. It counts as biochemical. The settings on record: in the presence of 100 µM of each inhibitor. On the procedure: A gel-based helicase assay was performed using DENV NS3 helicases, and the Alexa Fluor 488-labeled dsRNA strand and capture strand with the same nucleic acid sequences described in the Section 3.3. DENV NS3 helicase requires a single stranded 3′ overhang to unwind dsRNA substrates in the 3′ to 5′ direction; therefore, the substrate specificities of the DENV and HCV NS3 helicases are the same. The reaction mixture contained 50 mM Tris-HCl (pH 7.4), 1 mM DTT, 0.5% Tween 20, 0.25 µg/mL BSA, 2 mM MgCl2, 4 U RNasin (Promega), 5 mM ATP, 50 nM dsRNA substrate, 300 nM capture strand, an inhibitor, and 240 nM DENV NS3 in a total volume of 20 µL. DENV NS3 helicase was prepared as described previously. The reaction was started by the addition of DENV NS3 helicase, and was performed at 37 °C for 60 min using a GeneAmp PCR System 2700 (Applied Biosystems, Foster City, CA, USA). […] The helicase activity was calculated as the ratio of the signal intensity from ssRNA in the sample containing inhibitor to that in the control sample containing DMSO vehicle instead of inhibitor.

The next experiment concerns serine protease. The settings on record: cited from earlier work.
For another experiment, the system named is farnesoid-X-receptor. Set-up: method as in PMID 23656455. The settings on record: mammalian bile acid sensor; cited from earlier work.
The next experiment has as its system heat shock protein 60. The settings on record: cited from earlier work.

T1 sequence (P27958 1027-1657): as the sequence (P27958 1027-1657) above
T4 sequence (P27958 1027-1657): as above
T2 sequence (P27958 1027-1657): as above

As to `C[C@@H]1CCC2=C(CCCC2(C)C)[C@@]1(C)CC[C@H](CCCc1ccoc1)COS(=O)(=O)[O-].[Na+]` [hal3, halisulfate 3], the IC50 amounted to 4 µM on HCV NS3 helicase [1], 8 µM on NS3 ATPase activity, 8 µM on NS3 RNA binding activity and 14 µM at HCV NS3/4A protease. The “helicase-catalyzed RNA unwinding” value at HCV NS3 helicase [2] is “inhibited helicase-catalyzed RNA unwinding in a dose-dependent manner”. Moreover, the “DENV NS3 helicase activity” value on DENV NS3 helicase is “did not abolish”.
With `CC1(C)CCC[C@]2(C)[C@H]3CC/C(=C\OS(=O)(=O)[O-])[C@H](CCc4ccoc4)[C@@]3(C)CC[C@@H]12.[Na+]` [suvanine], the IC50 on HCV NS3 helicase [1] amounted to 3 µM; on NS3 ATPase activity, 7 µM; on NS3 RNA binding activity, 3 µM; on HCV NS3/4A protease it was 34 µM. The “helicase-catalyzed RNA unwinding” value at HCV NS3 helicase [2] is reported as “inhibited helicase-catalyzed RNA unwinding in a dose-dependent manner”. Further, the “DENV NS3 helicase activity” value at DENV NS3 helicase was “did not abolish”. The serine protease inhibition entry in the experiment with serine protease was “serine protease inhibitor”. The farnesoid-X-receptor antagonism entry in the experiment with farnesoid-X-receptor is reported as “antagonist”. In addition, the “interference with heat shock protein 60” value in the experiment with heat shock protein 60 is reported as “interferes with”.
